# Test results taken from US20100098671A1, “COMPOSITION FOR PREVENTION OR TREATMENT OF BONE MARROW DAMAGE” (MODERN CELL & TISSUE TECHNOLOGIES INC., priority 2007, published 2010).
# No end group written: not given here.
# How the values were obtained:
# Format in all cases: in vivo, C57b1/6 mice
# blood cells = assay: Viable blood cell count in gamma-irradiated mice; details: Substance-P administered before or after radiation-induced bone marrow damage
# Text: (§1) In order to ascertain protective and regenerative effects of Substance-P on bone marrow, 8-week-old C57b1/6 mice were purchased as experimental animals and divided into three groups, each consisting of 6 animals (n=6): two experimental groups (administration of a test drug before and after induction of bone marrow damage) and a control group. For this purpose, bone marrow damage was induced by radiation in animals.
# (§2) For the group used to confirm bone marrow-protective effects of Substance-P, 0.1 nmol/g of Substance-P was injected into caudal vein of mice, 1 day prior to radiation. 24 hours later, animals were irradiated with a gamma irradiator at a dose of 4 Gy. 4 hours after irradiation, 0.1 nmol/g of Substance-P diluted in PBS was injected once more into caudal vein of mice. Substance-P was diluted in PBS prior to use thereof.
# (§3) For the group used to confirm bone marrow-regenerative effects of Substance-P, 0.1 nmol/g of Substance-P was intravenously administered to caudal veins of mice immediately after animals were irradiated with gamma rays. 24 hours later, Substance-P was intravenously administered once more to animals.
# Blood cells were isolated from animals 3 and 7 days after irradiation treatment was complete. For this purpose, whole blood (WB) was isolated from abdominal vena cava using a 26-gauge syringe. […]
# bone marrow cells = assay: Viable bone marrow cell count in gamma-irradiated mice
# Text: as §1, §2, §3
# (§4) Bone marrow cells were isolated from animals 3 and 7 days after irradiation. For this purpose, femurs were isolated from mice and defatted to obtain the femoral bones only. A medium was allowed to flow from one end of the bone to the other end thereof using a 26-gauge syringe. This procedure was repeated five times to ensure that bone marrow cells were completely extracted from the bone. The cells were pooled in a tube, and centrifuged at 1500 rpm for 5 min and washed two times with PBS. The viable cell count was performed and compared between the drug-administered groups (administration of Substance-P before and after irradiation) and the non-administered group.
# [1] = tested on: hematopoietic stem cell colony formation of bone marrow cells; assay: CFU assay of bone marrow cells from irradiated mice in HSC-CFU media
# Text: as §1, §2, §3, §4
# When bone marrow cells and blood cells were prepared, the cells were inoculated onto 35 mm plates at a density of 3×10^3 bone marrow cells/plate and 5×10^6 blood cells/plate, respectively and cultured in hematopoietic stem cell-colony forming unit media (HSC-CFU media, available from Miltenyi). The cells were cultured without change of the culture medium for two weeks while a colony count was performed daily.
substance,measurement,setting,value
"Substance P (RPKPQQFFGLM; not fully specified; ends and bridges not checked; UniProt P20366 58-68, looked up) [Substance-P]",number of blood cells vs non-administered group,blood cells,significantly higher
same,viable bone marrow cell count vs non-administered group,"bone marrow cells; Substance-P 0.1 nmol/g i.v. 1 day prior to and 4 h after 4 Gy irradiation, 3rd post-irradiation day",no significant difference
same,viable bone marrow cell count vs non-administered group,"bone marrow cells; Substance-P 0.1 nmol/g i.v. 1 day prior to and 4 h after 4 Gy irradiation, after 7 days",about two-fold higher
same,viable bone marrow cell count vs non-administered group,"bone marrow cells; Substance-P 0.1 nmol/g i.v. immediately after irradiation and 24 h later, 3rd post-irradiation day",no significant difference
same,viable bone marrow cell count vs non-administered group,"bone marrow cells; Substance-P 0.1 nmol/g i.v. immediately after irradiation and 24 h later, after 7 days",about 2.5 fold
same,day from which colony formation was observable,[1]; Substance-P after irradiation,5 post-irradiation day
same,colony count vs non-administered group,"[1]; Substance-P after irradiation, 2-week culture, 14th post-irradiation day",about 3 fold
same,colony formation,"[1]; Substance-P after irradiation, 3rd post-irradiation day",no colony formation
same,colony count,"[1]; Substance-P after irradiation, 7th post-irradiation day",significantly increased
same,colony count vs non-administered group,"[1]; Substance-P prior to irradiation, 2-week culture, 14th post-irradiation day",about 9 fold
same,colony count vs non-administered group,"[1]; Substance-P prior to irradiation, 3rd post-irradiation day",higher colony counts
same,colony count vs non-administered group,"[1]; Substance-P prior to irradiation, 7th post-irradiation day",higher colony counts
same,colony count vs non-administered group,"[1]; Substance-P prior to irradiation, immediately after irradiation",higher colony counts
